Assay results reported in ChEMBL document CHEMBL5365394, “Design, synthesis and biological evaluation of novel spiro-quinazolinone derivatives as chitin synthase inhibitors and antifungal agents” (Eur J Med Chem, 2023).
In brackets after ≈: the same amount, converted by molar mass.

What was measured:
Aspergillus fumigatus [1] = assay: Antifungal activity against Aspergillus fumigatus GIMCC 3.19 assessed as fungal growth inhibition incubated for 24 hrs by two-fold serial dilution method; format: functional
Candida albicans [2] = assay: Antifungal activity against Candida albicans ATCC 76615 assessed as fungal growth inhibition incubated for 24 hrs by two-fold serial dilution method; format: functional
Aspergillus flavus [3] = assay: Antifungal activity against Aspergillus flavus ATCC 16870 assessed as fungal growth inhibition incubated for 24 hrs by two-fold serial dilution method; format: functional
[4] = Inhibition of Candida tropicalis ATCC 750 chitin synthase using UDP-GlcNAc as substrate incubated for 1 hr by absorbance based assay
Candida tropicalis = assay: Inhibition of Candida tropicalis ATCC 750 chitin synthase using […] as substrate at 300 ug/ml incubated for 1 hr by absorbance based assay relative to control; details: dose 300.0 µg/ml
Cryptococcus neoformans [5] = assay: Antifungal activity against Cryptococcus neoformans ATCC 32719 assessed as fungal growth inhibition incubated for 24 hrs by two-fold serial dilution method; format: functional
Aspergillus flavus [6] = assay: Antifungal activity against Fluconazole-resistant Aspergillus flavus ATCC 16870R assessed as fungal growth inhibition; format: functional
Aspergillus fumigatus [7] = assay: Antifungal activity against Fluconazole-resistant Aspergillus fumigatus GIMCC 3.19R assessed as fungal growth inhibition; format: functional
Cryptococcus neoformans [8] = assay: Antifungal activity against Fluconazole-resistant Cryptococcus neoformans ATCC 32719R assessed as fungal growth inhibition; format: functional
Candida albicans [9] = assay: Antifungal activity against Fluconazole-resistant Candida albicans ATCC 76615R assessed as fungal growth inhibition; format: functional

SMILES | MIC (Aspergillus fumigatus [1]) | MIC (Candida albicans [2]) | MIC (Aspergillus flavus [3]) | IC50 [4] | inhibition (Candida tropicalis) | MIC (Cryptococcus neoformans [5]) | MIC (Aspergillus flavus [6]) | MIC (Aspergillus fumigatus [7]) | MIC (Cryptococcus neoformans [8]) | MIC (Candida albicans [9])
O=C(/C=C/C(=O)Nc1ccc2c(c1)C(=O)NC1(CCSC1)N2)Nc1ccc(F)cc1 (centres undefined) | 128 µg/mL (≈ 300 µM) | 64 µg/mL (≈ 150 µM) | 128 µg/mL (≈ 300 µM) | 593 µM | 54.6% | 64 µg/mL (≈ 150 µM) | – | – | – | –
O=C(/C=C/C(=O)Nc1ccc2c(c1)C(=O)NC1(CCCC1)N2)Nc1ccc(Cl)cc1 | 128 µg/mL (≈ 301 µM) | 256 µg/mL (≈ 603 µM) | 128 µg/mL (≈ 301 µM) | – | 43.1% | 128 µg/mL (≈ 301 µM) | – | – | – | –
O=C(/C=C/C(=O)Nc1ccc2c(c1)C(=O)NC1(CCSC1)N2)Nc1cccc(Cl)c1 (centres undefined) | 32 µg/mL (≈ 72.2 µM) | 32 µg/mL (≈ 72.2 µM) | 64 µg/mL (≈ 144 µM) | 282 µM | 60.9% | 64 µg/mL (≈ 144 µM) | – | – | – | –
O=C(/C=C/C(=O)Nc1ccc2c(c1)C(=O)NC1(CCCC1)N2)Nc1ccc(Br)cc1 | 128 µg/mL (≈ 273 µM) | 128 µg/mL (≈ 273 µM) | 128 µg/mL (≈ 273 µM) | – | 56.4% | 64 µg/mL (≈ 136 µM) | – | – | – | –
O=C(/C=C/C(=O)Nc1ccccc1F)Nc1ccc2c(c1)C(=O)NC1(CCSC1)N2 (centres undefined) | 128 µg/mL (≈ 300 µM) | 64 µg/mL (≈ 150 µM) | 128 µg/mL (≈ 300 µM) | 653 µM | 52.2% | 128 µg/mL (≈ 300 µM) | – | – | – | –
O=C(/C=C/C(=O)Nc1ccc2c(c1)C(=O)NC1(CCOC1)N2)Nc1ccc(F)c(Cl)c1 (centres undefined) | 64 µg/mL (≈ 144 µM) | 128 µg/mL (≈ 288 µM) | 64 µg/mL (≈ 144 µM) | – | 56.8% | 128 µg/mL (≈ 288 µM) | – | – | – | –
Cc1cccc(NC(=O)/C=C/C(=O)Nc2ccc3c(c2)C(=O)NC2(CCSC2)N3)c1 (centres undefined) | 128 µg/mL (≈ 303 µM) | 64 µg/mL (≈ 151 µM) | 128 µg/mL (≈ 303 µM) | 800 µM | 47.2% | 64 µg/mL (≈ 151 µM) | – | – | – | –
Cc1ccc(NC(=O)/C=C/C(=O)Nc2ccc3c(c2)C(=O)NC2(CCSC2)N3)cc1 (centres undefined) | 128 µg/mL (≈ 303 µM) | 64 µg/mL (≈ 151 µM) | 128 µg/mL (≈ 303 µM) | 883 µM | 48.2% | 128 µg/mL (≈ 303 µM) | – | – | – | –
O=C(/C=C/C(=O)Nc1ccc2c(c1)C(=O)NC1(CCOC1)N2)Nc1ccc(Br)cc1 (centres undefined) | 64 µg/mL (≈ 136 µM) | 32 µg/mL (≈ 67.9 µM) | 64 µg/mL (≈ 136 µM) | – | 63.1% | 32 µg/mL (≈ 67.9 µM) | – | – | – | –
O=C(/C=C/C(=O)Nc1ccc2c(c1)C(=O)NC1(CCSC1)N2)Nc1ccc(F)c(Cl)c1 (centres undefined) | 64 µg/mL (≈ 139 µM) | 16 µg/mL (≈ 34.7 µM) | 32 µg/mL (≈ 69.4 µM) | 267 µM | 64.4% | 32 µg/mL (≈ 69.4 µM) | – | – | – | –
OC(Cn1cncn1)(Cn1cncn1)c1ccc(F)cc1F [FLUCONAZOLE] | 8 µg/mL (≈ 26.1 µM) | 2 µg/mL (≈ 6.53 µM) | 4 µg/mL (≈ 13.1 µM) | – | – | 4 µg/mL (≈ 13.1 µM) | 256 µg/mL (≈ 836 µM) | 256 µg/mL (≈ 836 µM) | 256 µg/mL (≈ 836 µM) | 256 µg/mL (≈ 836 µM)
